Results published in patent US12351583B2, “Triazolopyrimidines based on thymine nucleobase and methods for producing them” (TERA STONE CO., LTD, priority 2019, dated 2025).
pIC50: −log10 of the molar value. Where two headings read alike, the source gives them in different places.

Key:
[1] = tested on: KB cells (human nasopharyngeal carcinoma-derived); assay: MTT cell proliferation inhibition assay, KB cells; format: cell-based; settings: for pIC50: MTT assay, cultured 3 days, probit analysis, read-out: Inhibitory concentration against tumor cell lines in vitro IC50, KB; for cell proliferation inhibitory activity compared with 5-FU, KB cells: comparison of IC50 with control drug 5-FU
Protocol: (§1) Regarding the synthesized triazolopyrimidine compounds, their cell proliferation inhibitory activities, as an index of antitumor acttivity, were examined. The test was performed by MTT assay (T. Mosmann, J. Immunol. Methods, 65, 55 (1983); M. B. Hansen, S. E. Nielsen and K. Berg, J. Immunol. Methods, 119, 203 (1989), which are incorporated by reference in their entirety.), and the cancer cells tested were CCRF-HSB-2 cells (human acute lymphoblastic leukemia) and KB cells (human […]). Cytarabine (Ara-C, cytarabine: 4-amino-1-β-D-arabinofuranosyl-2(1H)-one) and 5-fluorouracil (5-FU, 5-fluorouracil) were used as control drugs, which are antimetabolite anticancer agents used for, for example, acute leukemia and/or gastrointestinal cancer.
(§2) Human acute lymphoblastic leukemia cells (T-cells) CCRF-HSB-2 and human nasopharyngeal carcinoma-derived KB cells were cultured in RPMI 1640 medium supplemented with 10% fetal bovine serum.
(§3) Test agents were dissolved in dimethyl sulfoxide to become a concentration of 10 mg/ml and stored at 4° C. These solutions were diluted with MEM-Hanks medium and used for the assay.
(§4) • 1. 50 μl of the agent solution or MEM-Hanks medium was pre-filled in a 96-well plate. • 2. Cells in the logarithmic growth phase were harvested, and suspension of the cells was prepared such that the cell density is 1×10^5 cells/ml (5,000 cells/50 μl/well) and the serum concentration is 20%. The suspension 50 μl was seeded to each well. The cells were cultured in a carbon dioxide incubator at 37° C. for 3 days. • 3. After completion of the culture, 10 μl of MTT solution*(5 mg/ml in PBS-) was added to each well, and the cells were further cultured at 37° C. for 4 hours in a carbon dioxide incubator. *MTT solution: 1 g of MTT (Sigma M-2128) was dissolved in 200 ml of PBS-under light shielding, and the solution was filtrated using a 0.45 μm filter, and then stored at 4° C. If insoluble components precipitated during storage, filtration was performed again. • 4. After completion of the culture, 100 μl of 0.02 N HCl/50% N,N-dimethylformamide/20% SDS was added and stirred in each well to dissolve produced formazan. Its absorbance at 570 nm (test wavelength) and 690 nm (reference wavelength) was measured by a microplate reader (Tosoh MPR4Ai) and the proliferation inhibition rate was determined by the following formula. Inhibition rate (%)=(1−Tx/Cx)×100
(§5) Tx: Absorbance of wells containing sample
(§6) Cx: Absorbance of wells containing no sample (control) • 5. Inhibitory concentration showing 50% inhibition (IC50) of samples were determined by probit analysis using a computer software. [Evaluation]

[2] = tested on: CCRF-HSB-2 cells (human acute lymphoblastic leukemia); assay: MTT cell proliferation inhibition assay, CCRF-HSB-2 cells; format: cell-based; settings: for pIC50: MTT assay, cultured 3 days, probit analysis, read-out: Inhibitory concentration against tumor cell lines in vitro IC50, CCRF-HSB-2; for cell proliferation inhibitory activity compared with 5-FU, CCRF-HSB-2 cells: comparison of IC50 with control drug 5-FU
Protocol: as §1, §2, §3, §4, §5, §6

pIC50 [1]	pIC50 [2]	SMILES	also measured
< 4.00	< 4.00	Cc1c[nH]c(=O)nc1NN=Cc1ccccc1 [Compound 3b]	
4.87	4.82	Cc1c[nH]c(=O)n2nc(-c3ccc(Cl)c(Cl)c3)nc12 [Compound 5j]	
4.54	4.63	O=c1[nH]cc(F)c2nc(-c3ccc(Cl)c(Cl)c3)nn12 [Compound 9e]	
4.63	< 4.00	Cc1c[nH]c(=O)n2nc(-c3ccc(C#N)cc3)nc12 [Compound 5m]	
4.31	4.24	CCc1nc2c(F)c[nH]c(=O)n2n1 [Compound 9c]	
4.20	4.31	Cc1c[nH]c(=O)n2nc(-c3ccccc3F)nc12 [Compound 5g]	
4.20	4.26	Cc1c[nH]c(=O)n2nc(-c3ccc(F)cc3)nc12 [Compound 5h]	
		Cc1cnc(Cl)n2nc(-c3ccc(C#N)cc3)nc12 [Compound 6m]	cell proliferation inhibitory activity compared with 5-FU, CCRF-HSB-2 cells [2]: stronger cell proliferation inhibitory activity than 5-FU
4.37	4.20	Cc1ccc(-c2nc3c(C)c[nH]c(=O)n3n2)cc1 [Compound 5c]	
4.55	4.50	O=c1[nH]cc(F)c2nc(-c3ccc(Br)cc3)nn12 [Compound 9f]	
< 4.00	< 4.00	COc1ccc(-c2nc3c(C)c[nH]c(=O)n3n2)cc1 [Compound 5d]	
		O=c1[nH]cc(F)c(=O)[nH]1 [Compound 5-FU, 5-fluorouracil, reference compound]	pIC50 ([1]; Homo sapiens, 72 h): 5.65; pIC50 ([2]; Homo sapiens, 72 h): 5.56
		Nc1ccn([C@@H]2O[C@H](CO)[C@@H](O)[C@@H]2O)c(=O)n1 [AraC, 4-amino-1-β-D-arabinofuranosyl-2(1H)-one, reference compound]	pIC50 ([1]; Homo sapiens, 72 h): 6.92; pIC50 ([2]; Homo sapiens, 72 h): 7.68
4.24	4.31	Cc1c[nH]c(=O)n2nc(-c3ccccc3)nc12 [Compound 5b]	
4.38	4.54	Cc1c[nH]c(=O)n2nc(-c3ccncc3)nc12 [Compound 5q]	
< 4.00	< 4.00	Cc1c[nH]c(=O)n2nc(-c3ccc(C(=O)O)cc3)nc12 [Compound 5n]	
		Cc1cnc(Cl)n2nc(-c3ccccc3)nc12 [Compound 6b]	cell proliferation inhibitory activity compared with 5-FU, CCRF-HSB-2 cells [2]: stronger cell proliferation inhibitory activity than 5-FU
4.41	4.65	O=c1[nH]cc(F)c2nc(-c3ccccc3)nn12 [Compound 9d]	
4.11	4.23	Cc1c[nH]c(=O)n2nc(-c3cccnc3)nc12 [Compound 5p]	
< 4.00	< 4.00	COc1cc(OC)c(-c2nc3c(C)c[nH]c(=O)n3n2)c(OC)c1 [Compound 5e]	
4.09	4.11	CCc1nnc2c(C)c[nH]c(=O)n12 [Compound 4a]	
4.36	4.38	N#Cc1ccc(-c2nc3c(F)c[nH]c(=O)n3n2)cc1 [Compound 9g]	
4.03	4.13	Cc1c[nH]c(=O)n2nc(-c3ccccc3Br)nc12 [Compound 5k]	
		Cc1cnc(Cl)n2nc(-c3ccc([N+](=O)[O-])cc3)nc12 [Compound 6f]	cell proliferation inhibitory activity compared with 5-FU, KB cells [1]: stronger cell proliferation inhibitory activity than 5-FU; cell proliferation inhibitory activity compared with 5-FU, CCRF-HSB-2 cells [2]: stronger cell proliferation inhibitory activity than 5-FU
< 4.00	< 4.00	Cc1c[nH]c(=O)n2c(-c3ccccc3)nnc12 [Compound 4b]	
< 4.00	4.00	Cc1c[nH]c(=O)n2nc(-c3ccc4ccccc4c3)nc12 [Compound 5r]	
5.73	4.15	Cc1c[nH]c(=O)n2nc(-c3ccc([N+](=O)[O-])cc3)nc12 [Compound 5f]	cell proliferation inhibitory activity compared with 5-FU, KB cells [1]: stronger cell proliferation inhibitory activity than 5-FU
4.30	4.38	Cc1c[nH]c(=O)n2nc(-c3ccc(Cl)cc3)nc12 [Compound 5i]	
		Cc1cnc(Cl)n2nc(-c3ccc(Cl)c(Cl)c3)nc12 [Compound 6j]	cell proliferation inhibitory activity compared with 5-FU, CCRF-HSB-2 cells [2]: stronger cell proliferation inhibitory activity than 5-FU
